Assay results as given in patent publication US10172868B2, “Substituted quinazolines for inhibiting kinase activity” (NeuPharma, Inc., priority 2013, dated 2019).

Legend:
[1] = target: EGFR (ErbB1) (Homo sapiens (Human), UniProt P00533); assay: Z'-LYTE kinase inhibition assay, EGFR; format: biochemical; settings: for inhibition at 0.041 µM: read-out: % inhibition against EGFR (Compound at 0.041 μM); for IC50: read-out: IC50 against EGFR
How it was run: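 Z'-LYTE FRET assay run with 1.1-5.25 ng EGFR and 2 μM peptide substrate in 50 mM HEPES pH 7.5, 10 mM MgCl2, 2 mM MnCl2, 1 mM EGTA, 1 mM DTT, 0.01% BRIJ-35, 1% DMSO. Kinase reaction 60 min at room temperature, then 60 min development; IC50 from 10-point 3-fold titrations.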

[2] = target: EGFR (ErbB1) T790M L858R (Homo sapiens (Human), UniProt P00533, L858R/T790M); assay: Z'-LYTE kinase inhibition assay, EGFR L858R/T790M; format: biochemical; settings: for inhibition at 0.0137 µM: read-out: % inhibition against EGFR L858R/T790M (Compound at 0.0137 μM); for IC50: read-out: IC50 against EGFR L858R/T790M
Chain of EGFR (ErbB1) T790M L858R (P00533 25-1210 T790M/L858R): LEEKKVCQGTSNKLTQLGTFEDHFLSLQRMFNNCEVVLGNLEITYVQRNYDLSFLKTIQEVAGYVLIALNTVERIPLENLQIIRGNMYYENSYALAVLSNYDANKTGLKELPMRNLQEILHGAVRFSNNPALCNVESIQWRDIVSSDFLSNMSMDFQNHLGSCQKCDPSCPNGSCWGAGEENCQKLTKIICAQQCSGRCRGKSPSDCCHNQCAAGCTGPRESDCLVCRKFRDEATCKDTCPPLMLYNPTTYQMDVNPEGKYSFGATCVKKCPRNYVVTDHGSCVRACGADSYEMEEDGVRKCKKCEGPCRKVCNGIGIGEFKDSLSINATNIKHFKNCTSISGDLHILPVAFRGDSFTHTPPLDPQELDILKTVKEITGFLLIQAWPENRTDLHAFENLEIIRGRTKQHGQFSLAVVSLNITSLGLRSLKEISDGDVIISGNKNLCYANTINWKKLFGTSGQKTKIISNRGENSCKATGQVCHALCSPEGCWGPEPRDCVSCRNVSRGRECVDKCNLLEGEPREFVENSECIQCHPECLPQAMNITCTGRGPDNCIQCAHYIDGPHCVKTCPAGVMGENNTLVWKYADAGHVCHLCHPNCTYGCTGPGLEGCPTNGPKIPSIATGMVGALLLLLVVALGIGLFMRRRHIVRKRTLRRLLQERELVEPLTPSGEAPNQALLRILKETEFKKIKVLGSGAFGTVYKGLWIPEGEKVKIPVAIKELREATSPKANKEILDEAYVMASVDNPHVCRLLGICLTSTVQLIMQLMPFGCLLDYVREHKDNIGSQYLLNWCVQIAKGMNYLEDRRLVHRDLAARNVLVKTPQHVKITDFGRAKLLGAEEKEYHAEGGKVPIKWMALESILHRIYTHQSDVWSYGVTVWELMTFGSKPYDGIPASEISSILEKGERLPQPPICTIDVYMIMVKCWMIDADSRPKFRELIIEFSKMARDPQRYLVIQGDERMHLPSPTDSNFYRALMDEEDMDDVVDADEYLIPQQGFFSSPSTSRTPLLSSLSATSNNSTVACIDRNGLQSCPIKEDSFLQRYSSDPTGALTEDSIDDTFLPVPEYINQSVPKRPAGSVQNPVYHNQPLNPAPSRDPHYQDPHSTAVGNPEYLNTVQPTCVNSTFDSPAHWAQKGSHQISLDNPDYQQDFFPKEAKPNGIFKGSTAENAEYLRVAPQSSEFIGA
How it was run: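 Z'-LYTE FRET peptide assay at 1% DMSO, 10-point 3-fold titrations; kinase/peptide mix in 50 mM HEPES pH 6.5, 0.01% BRIJ-35, 10 mM MgCl2, 1 mM EGTA, 0.02% NaN3. Kinase reaction ran 60 min at room temperature, followed by 60 min development and a fluorescence read. IC50 derived from the concentration series.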

[3] = tested on: A431 cells; assay: cells; settings: Homo sapiens, A-431, 72 h, read-out: IC50 in A431 cells
Experimental: (§1) Taxol (as a positive control. Sigma) and compounds were dissolved in DMSO (Sigma), and the final concentration of DMSO in the medium was 1%. Tumor cells were plated in 96-well plates at densities of about 4000 cells/well of a 96-well plate and allowed to adhere/grow for 24 h. They were then treated with various concentrations of drug for 72 h, 3-(4,5-Dimethylthiazol-2-yl)-2,5-diphenyltetrazolium bromide (MTT, Sigma) was used to determine the number of viable cells at the time of compound addition and the number of cells remaining after 72 h compound exposure. The number of cells remaining after 72 h was compared to the number of viable cells at the time of compound addition by measuring the absorbance at 570 nm, allowing for the calculation of growth inhibition.
(§2) All concentrations of compounds were tested in triplicate and controls were averaged over 4 wells. IC50 was calculated by plotting the concentration of compound vs the percentage of inhibition in treated wells using GraphPad Prism 5.
(§3) The scale utilized in Tables 5 is as follows: +++ less than 100 nM; ++ between 100 nM and 500 nM; and + greater than 500 nM.

[4] = tested on: H3255 cells; assay: Inhibition of cancer cell growth, MTT assay, H3255; settings: Homo sapiens, NCI-H3255, 72 h, read-out: IC50 in H3255 cells
[5] = tested on: H1975 cells; assay: Inhibition of cancer cell growth, MTT assay, H1975; settings: Homo sapiens, NCI-H1975, 72 h, read-out: IC50 in H1975 cells
[6] = tested on: HCC827 cells; assay: cells; settings: Homo sapiens, HCC827, 72 h, read-out: IC50 in HCC827 cells
Experimental: as §1, §2, §3

[7] = target: BTK (Homo sapiens (Human), UniProt Q06187); assay: Z'-LYTE kinase inhibition assay, BTK; format: biochemical; settings: for IC50: read-out: IC50 against BTK
Chain of BTK (Q06187 whole entry): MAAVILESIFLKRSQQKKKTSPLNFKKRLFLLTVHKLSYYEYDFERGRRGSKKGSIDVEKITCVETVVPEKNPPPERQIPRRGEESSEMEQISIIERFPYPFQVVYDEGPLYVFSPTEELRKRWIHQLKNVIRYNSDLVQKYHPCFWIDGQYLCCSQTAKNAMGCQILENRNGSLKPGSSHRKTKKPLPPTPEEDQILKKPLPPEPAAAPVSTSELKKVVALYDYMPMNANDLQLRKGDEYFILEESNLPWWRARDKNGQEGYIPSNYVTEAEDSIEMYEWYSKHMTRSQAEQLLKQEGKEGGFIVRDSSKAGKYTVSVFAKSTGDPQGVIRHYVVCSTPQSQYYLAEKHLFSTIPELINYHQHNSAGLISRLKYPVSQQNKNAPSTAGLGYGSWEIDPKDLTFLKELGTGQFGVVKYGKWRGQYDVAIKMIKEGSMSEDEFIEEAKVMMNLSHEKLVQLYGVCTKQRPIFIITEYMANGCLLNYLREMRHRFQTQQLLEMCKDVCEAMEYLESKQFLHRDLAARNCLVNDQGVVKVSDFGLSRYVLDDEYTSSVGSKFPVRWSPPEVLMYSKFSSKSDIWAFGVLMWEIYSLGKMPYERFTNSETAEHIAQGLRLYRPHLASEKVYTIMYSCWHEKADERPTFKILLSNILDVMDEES
Experimental: Inhibitory activities of compounds against BTK, EGFR and EGFR mutants (EGFR L858R, EGFR T790M, EGFR L858R/T790M), FGFR1, FGFR2, JAK2, JAK3 and KDR were measured by Invitrogen using Z'-LYTE® Method as briefly described in the following.
Test Compounds are screened in 1% DMSO (final) in the well. For 10 point titrations, 3-fold serial dilutions are conducted from the starting concentration. All ATP Solutions are diluted to a 4× working concentration in Kinase Buffer (50 mM HEPES pH 7.5, 0.01% BRIJ-35, 10 mM MgCl2, 1 mM EGTA). Peptide/Kinase Mixtures are diluted to a 2× working concentration in the appropriate Kinase Buffers as described below.
(v) Peptide/Kinase Mixtures for Measurement of BTK:
The 2×BTK/Tyr 01 mixture is prepared in 50 mM HEPES pH 7.5. 0.01% BRIJ-35, 10 mM MgCl2, 1 mM EGTA.
The mixture is then incubated for another 60-minute at room temperature for development reaction. Finally fluorescence is read by plate reader.
To determine IC50 of a compound against EGFR, EGFR mutant and other kinases, a series of concentrations of the compound were tested for the inhibition. […] The scale utilized in Table 4 is as follows: +++ less than 100 nM, ++ 100-500 nM and + greater than 500 nM.

[8] = tested on: H1975 tumor xenografts; assay: Inhibition of tumor growth in H1975 xenograft model; format: in vivo, BALB/c female nude mice; settings: 30 mg/kg, Intraperitoneal injection, QD x 14; for Tumor Volume Pre-treatment: baseline before treatment
Experimental: H1975 cells were implanted in BALB/c female nude mice and grown as tumor xenografts. When tumors achieved 120-200 mm^3, mice were assigned into treatment and control groups using randomized block design based upon their tumor volumes. Each group contained 6 tumor-bearing mice. Tumors were measured twice weekly in two dimensions using a caliper, and the tumor volume was calculated from two-dimensional measurements using the equation V=0.5×a×b^2 where a and b are the long and short diameters of the tumor, respectively. Relative tumor volume (RTV) was defined as TVt/TVi, the ratio of the volume on a given day (TVt) and the volume at the start of treatment (TVi). Relative tumor growth rate (T/C) was defined as RTVT/RTVC, the ratio of relative tumor volume of treatment group (RTVT) and relative tumor volume of control group (RTVC) on a given day.

Chain of EGFR (ErbB1) (P00533 25-1210): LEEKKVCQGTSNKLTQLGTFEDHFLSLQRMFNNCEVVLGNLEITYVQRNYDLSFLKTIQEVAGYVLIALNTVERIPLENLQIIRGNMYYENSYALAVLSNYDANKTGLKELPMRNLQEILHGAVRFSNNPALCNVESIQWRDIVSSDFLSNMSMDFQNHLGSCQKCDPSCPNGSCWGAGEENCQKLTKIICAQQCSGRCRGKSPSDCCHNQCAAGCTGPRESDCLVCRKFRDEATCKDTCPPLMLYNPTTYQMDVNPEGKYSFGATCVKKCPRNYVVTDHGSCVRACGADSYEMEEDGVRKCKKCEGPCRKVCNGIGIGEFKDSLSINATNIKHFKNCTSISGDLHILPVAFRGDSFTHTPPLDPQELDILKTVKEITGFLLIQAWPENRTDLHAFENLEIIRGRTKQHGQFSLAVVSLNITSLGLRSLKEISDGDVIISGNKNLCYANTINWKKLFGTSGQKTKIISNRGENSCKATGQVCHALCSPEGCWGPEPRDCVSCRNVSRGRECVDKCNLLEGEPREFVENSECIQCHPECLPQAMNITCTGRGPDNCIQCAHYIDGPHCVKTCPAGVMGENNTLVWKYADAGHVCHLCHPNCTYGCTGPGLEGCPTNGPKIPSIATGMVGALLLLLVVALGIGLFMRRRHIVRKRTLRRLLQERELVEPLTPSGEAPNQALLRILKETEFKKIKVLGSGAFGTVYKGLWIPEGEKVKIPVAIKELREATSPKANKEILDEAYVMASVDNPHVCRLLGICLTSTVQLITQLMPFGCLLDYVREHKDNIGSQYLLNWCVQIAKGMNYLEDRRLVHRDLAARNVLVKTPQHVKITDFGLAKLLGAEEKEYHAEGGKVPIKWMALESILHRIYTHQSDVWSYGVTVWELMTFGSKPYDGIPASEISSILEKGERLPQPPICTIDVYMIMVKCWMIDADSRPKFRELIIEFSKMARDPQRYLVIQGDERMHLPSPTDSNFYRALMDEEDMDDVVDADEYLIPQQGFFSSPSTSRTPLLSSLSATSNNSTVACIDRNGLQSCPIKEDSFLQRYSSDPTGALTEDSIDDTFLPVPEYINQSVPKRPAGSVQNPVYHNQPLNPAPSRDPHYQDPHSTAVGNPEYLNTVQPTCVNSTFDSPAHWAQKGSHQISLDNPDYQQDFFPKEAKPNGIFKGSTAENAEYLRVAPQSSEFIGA

Row | Compound | inhibition at 0.041 µM [1] [%] | inhibition at 0.0137 µM [2] [%] | IC50 [2] [nM] | IC50 [3] [nM] | IC50 [4] [nM] | IC50 [5] [nM] | IC50 [6] [nM] | inhibition at 0.041 µM ([7]; compound at 0.041 μM, read-out: % inhibition against BTK) [%] | inhibition at 1 µM ([1]; read-out: % inhibition against EGFR (Compound at 1 μM)) [%] | inhibition at 1 µM ([2]; read-out: % inhibition against EGFR L858R/T790M (Compound at 1 μM)) [%] | IC50 [1] [nM] | IC50 [7] [nM] | T/C (relative tumor growth rate) [8] [%] | Tumor Volume Post-treatment [8] [mm^3] | Tumor Volume Pre-treatment [8] [mm^3]
1 | C=CC(=O)Nc1cccc(-c2cccc3cnc(Nc4ccc(OC5CCN(CCO)CC5)cc4)nc23)c1 [Example C137, N-(3-(2-((4-((1-(2-hydroxyethyl)piperidin-4-yl)oxy)phenyl)amino)quinazolin-8-yl)phenyl)acrylamide] | > 50 | > 50 | < 100 | 100 to 500 | > 500 | < 100 |  |  |  |  |  |  |  |  | 
2 | C=CC(=O)Nc1cccc(-c2cccc3cnc(Nc4ccc(N5CCN(CC(C)(C)O)CC5)cc4)nc23)c1 [Example C145, N-(3-(2-((4-(4-(2-hydroxy-2-methylpropyl)piperazin-1-yl)phenyl)amino)quinazolin-8-yl)phenyl)acrylamide] | < 50 | > 50 | < 100 | 100 to 500 | > 500 | < 100 | < 100 |  |  |  |  |  |  |  | 
3 | C=CC(=O)Nc1cccc(-c2cccc3cnc(Nc4ccc(N5CCN(C)CC5=O)cc4)nc23)c1 [Example C106, N-(3-(2-((4-(4-methyl-2-oxopiperazin-1-yl)phenyl)amino)quinazolin-8-yl)phenyl)acrylamide] |  |  | < 100 | < 100 | 100 to 500 | < 100 |  |  |  |  | > 500 | < 100 |  |  | 
4 | C=CC(=O)Nc1cccc(-c2cccc3cnc(Nc4ccc(OCCOC)cc4)nc23)c1 [Example C107, N-(3-(2-((4-(2-methoxyethoxy)phenyl)amino)quinazolin-8-yl)phenyl)acrylamide] |  |  | < 100 | < 100 | 100 to 500 | < 100 |  |  |  |  | > 500 | < 100 | 63.6 | 1341.7 | 150.6
5 | C=CC(=O)Nc1cccc(-c2cccc3cnc(Nc4ccc(OC5CCN(C)CC5F)cc4)nc23)c1 (stereo not shown) [Example C079, N-(3-(2-((4-((3-fluoro-1-methylpiperidin-4-yl)oxy)phenyl)amino)quinazolin-8-yl)phenyl)acrylamide] | < 50 |  | < 100 | 100 to 500 | 100 to 500 | < 100 |  |  |  |  |  | < 100 |  |  | 
6 | C=CC(=O)Nc1cccc(-c2cccc3cnc(Nc4ccc(NC5CCN(C)CC5F)cc4)nc23)c1 (stereo not shown) [Example C105, N-(3-(2-((4-((3-fluoro-1-methylpiperidin-4-yl)amino)phenyl)amino)quinazolin-8-yl)phenyl)acrylamide] | < 50 |  | < 100 | 100 to 500 | < 100 | < 100 | < 100 |  |  |  | < 100 | < 100 |  |  | 
7 | C=CC(=O)Nc1cccc(-c2cccc3cnc(Nc4ccc(N5CCN(CC)CC5)cc4)nc23)c1 [Example C029, N-(3-(2-((4-(4-ethylpiperazin-1-yl)phenyl)amino)quinazolin-8-yl)phenyl)acrylamide] |  |  |  | 100 to 500 | > 500 | 100 to 500 | < 100 |  | > 50 | > 50 |  |  |  |  | 
8 | C=CC(=O)Nc1cccc(-c2cccc3cnc(Nc4cc(F)c(N5CCN(CCOC)CC5)cc4F)nc23)c1 [Example C161, N-(3-(2-((2,5-difluoro-4-(4-(2-methoxyethyl)piperazin-1-yl)phenyl)amino)quinazolin-8-yl)phenyl)acrylamide] |  | < 50 |  |  | > 500 | 100 to 500 |  |  |  |  |  |  |  |  | 

Second part, led by results:

Row | inhibition at 0.041 µM [1] [%] | inhibition at 0.0137 µM [2] [%] | IC50 [2] [nM] | IC50 [3] [nM] | IC50 [4] [nM] | IC50 [5] [nM] | IC50 [6] [nM] | inhibition at 0.041 µM ([7]; compound at 0.041 μM, read-out: % inhibition against BTK) [%] | inhibition at 1 µM ([1]; read-out: % inhibition against EGFR (Compound at 1 μM)) [%] | inhibition at 1 µM ([2]; read-out: % inhibition against EGFR L858R/T790M (Compound at 1 μM)) [%] | Compound | IC50 [1] [nM] | IC50 [7] [nM] | T/C (relative tumor growth rate) [8] [%] | Tumor Volume Post-treatment [8] [mm^3] | Tumor Volume Pre-treatment [8] [mm^3]
9 | > 50 | > 50 | < 100 | > 500 | > 500 | < 100 |  |  |  |  | C=CC(=O)Nc1cccc(-c2cccc3cnc(Nc4ccc(NC5CCN(C)CC5)cc4F)nc23)c1 [Example C140, N-(3-(2-((2-fluoro-4-((1-methylpiperidin-4-yl)amino)phenyl)amino)quinazolin-8-yl)phenyl)acrylamide] |  |  |  |  | 
10 | < 50 | > 50 |  | 100 to 500 | 100 to 500 | < 100 |  |  |  |  | C=CC(=O)Nc1cccc(-c2cccc3cnc(Nc4ccc(N5CCN(CCOC)CC5)cc4)nc23)c1 [Example C152, N-(3-(2-((4-(4-(2-methoxyethyl)piperazin-1-yl)phenyl)amino)quinazolin-8-yl)phenyl)acrylamide] |  |  |  |  | 
11 | > 50 | > 50 | < 100 | 100 to 500 | 100 to 500 | < 100 | < 100 |  |  |  | C=CC(=O)Nc1cccc(-c2cccc3cnc(Nc4ccc(OC5CCN(C)CC5)cc4F)nc23)c1 [Example C141, N-(3-(2-((2-fluoro-4-((1-methylpiperidin-4-yl)oxy)phenyl)amino)quinazolin-8-yl)phenyl)acrylamide] |  |  |  |  | 
12 | > 50 | > 50 | < 100 | < 100 | 100 to 500 | < 100 |  | > 50 |  |  | C=CC(=O)Nc1cccc(-c2cccc3cnc(Nc4ccc(NC5CCN(C)CC5)cc4)nc23)c1 [Example C118, N-(3-(2-((4-((1-methylpiperidin-4-yl)amino)phenyl)amino)quinazolin-8-yl)phenyl)acrylamide] |  |  |  |  | 
13 | > 50 | > 50 | < 100 | < 100 | 100 to 500 | < 100 |  |  |  |  | C=CC(=O)Nc1cccc(-c2cccc3cnc(Nc4ccc(NC5CCN(CCO)CC5)cc4)nc23)c1 [Example C139, N-(3-(2-((4-((1-(2-hydroxyethyl)piperidin-4-yl)amino)phenyl)amino)quinazolin-8-yl)phenyl)acrylamide] |  |  |  |  | 
14 | < 50 | > 50 | < 100 | < 100 | 100 to 500 | < 100 |  |  |  |  | C=CC(=O)Nc1cccc(-c2cccc3cnc(Nc4ccc(NC5CN(CCF)C5)cc4)nc23)c1 [Example C103, N-(3-(2-((4-((1-(2-fluoroethyl)azetidin-3-yl)amino)phenyl)amino)quinazolin-8-yl)phenyl)acrylamide] |  |  | 35.8 | 748.7 | 150.9
15 | > 50 | > 50 | < 100 | < 100 | 100 to 500 | < 100 |  |  |  |  | C=CC(=O)Nc1cccc(-c2cccc3cnc(Nc4ccc(N[C@H]5CCN(C)C5)cc4)nc23)c1 [Example C127, (S)-N-(3-(2-((4-((1-methylpyrrolidin-3-yl)amino)phenyl)amino)quinazolin-8-yl)phenyl)acrylamide] |  |  |  |  | 
